# Source: PubChem BioAssay AID1963831 (Molecular Pharmacology Branch, DTP, NCI, 2024)
# Test system: 889142-216-R-J1-PDC complex spheroid viability
# Experiment: Anticancer human tumor 889142-216-R-J1-PDC patient-derived bladder carcinoma cell line growth inhibition [POLQ]
# Details: for IC50: curve of first compound; for viability, T/C: stronger effect = lower value
# Experimental: Multicellular complex tumor spheroid response to Polymerase (POL) inhibitors (novobiocin, ART-558, RP6685) in combination with a variety of drugs and investigational agents in selected tumor cell lines
# The POL inhibitors (novobiocin, ART-558, and RP6685) were evaluated both individually and in combination with standard of care and investigational anticancer small molecules within a complex spheroid model of solid tumors. . Complex spheroids include a stromal component modeled by human endothelial cells (HUVEC) and fibroblasts modeled by human mesenchymal stem cells (MSCs). The concentration ranges selected for each drug and investigational agent were based upon clinically achievable concentrations if the clinical Cmax of the agent was known.
# Compounds. The drugs and investigational agents: novobiocin (NSC847541), ART-558 (NSC835418), RP-6685 (NSC848927), peposertib (NSC802822), ceralasertib (NSC780249), elimusertib (NSC800525), camonsertib (NSC841442), AZD-1390 (NSC803789), olaparib (NSC753686), talazoparib (NSC767125), rucaparib (NSC756644), sotorasib (NSC818433), MRTX-1133 (NSC836407), SN-38 (NSC673596), topotecan (NSC609699), epotoside (NSC141540), doxorubicin (NSC123127), gemcitabine (NSC613327), 5-fluorouracil (NSC19893), paclitaxel (NSC125973), vemurafenib (NSC761431), MSA-2 (NSC828583), SN-011 (NSC837082), adavosertib (NSC754352), prexasertib (NSC758257), carboplatin (NSC241240) and oxaliplatin (NSC266046), were obtained from the National Cancer Institute (NCI) Developmental Therapeutics Program Chemical Repository (21). The FDA-approved anticancer drug set is available from the Developmental Therapeutics Program at https://dtp.cancer.gov/organization/dscb/obtaining/. […] The stock solutions were prepared in dimethyl sulfoxide (DMSO, Sigma-Aldrich, St. Louis, MO, cat. D2650), except for the platinum compounds which were prepared in saline (Quality Biological, Gaithersburg, MD, cat. 114-055-101), at 800-fold the tested concentration and stored at -70 degrees C prior to their use. All drugs and investigational agents were tested over a range starting from a high concentration at or near the clinical Cmax and decreasing in half-log increments. If the clinical Cmax for an agent had not been determined, the highest concentration tested was 10 microM, except for SN-38, which was tested at a high concentration of 1 microM.
# Cell Culture. All cells were maintained in an incubator at 37 degrees C and 5% CO2 with 95% humidity. The PDC lines were cultured according to standard operating procedures established by the NCI PDMR (https://pdmr.cancer.gov). Table 3 of the manuscript, lists the cell lines along with the number of the three cell types plated to form the mct-spheroids and media for tumor cell growth. After thawing, all PDC lines, except 997537-175-T-J1-PDC and 415267-285-R-J2-PDC, were cultured in Matrigel-coated flasks prepared with a working solution of 1X Ham's F-12 nutrient mix, without supplementation (Thermo Fisher Scientific, cat. 11765054), 100 U/mL penicillin-streptomycin (Thermo Fisher Scientific, cat. 15140122), and 2.5% Matrigel (Corning Inc., Corning, NY, cat. 354248) for the first three passages. The two PDC lines 997537-175-T-J1-PDC and 415267-285-R-J2-PDC were cultured on uncoated flasks. The 857933-349-R-J2-PDC line was cultured in 6C/Colon 1B media containing advanced DMEM/F-12 (Thermo Fisher Scientific, cat. 12634028), 10 mM HEPES (Thermo Fisher Scientific, cat. 15630080), 1X GlutaMAX supplement (Thermo Fisher Scientific, cat. 35050061), 0.1 mg/mL primocin (InvivoGen, San Diego, CA, cat. ant-pm-2), 10% defined fetal bovine serum, heat inactivated (HyClone Laboratories Inc., Logan, UT, cat. SH30070.03HI), 50% L-WRN conditioned media (ATCC, cat. CRL-3276), 1.25 mM N-Acetyl-L-cysteine (Sigma-Aldrich, cat. A9165), 10 mM nicotinamide (Sigma-Aldrich, cat. N0636), 1X B-27 supplement (Thermo Fisher Scientific, cat. 17504044), 1X N-2 supplement (Thermo Fisher Scientific, cat. […]
# 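Note: spheroids exposed to compounds for seven days.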
# 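Throughout, for viability, T/C: 100% = DMSO vehicle control viability.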
compound,measurement,setting,value
CC(=O)O[C@H]1C(=O)[C@@]2(C)[C@H]([C@H](OC(=O)c3ccccc3)[C@]3(O)C[C@H](OC(=O)[C@H](O)[C@@H](NC(=O)c4ccccc4)c4ccccc4)C(C)=C1C3(C)C)[C@]1(OC(C)=O)CO[C@@H]1C[C@@H]2O + Cc1cccc(N(C)C(=O)C2C(O)CCN2c2nc(C)cc(C(F)(F)F)c2C#N)c1,IC50,second compound 0.0316 µM,> 3 µM
same,IC50,second compound 0.1 µM,0.344 µM
same,IC50,second compound 0.316 µM,> 3 µM
same,IC50,second compound 1 µM,> 3 µM
same,IC50,second compound 3.16 µM,0.0095 µM
same,IC50,second compound 10 µM,< 0.00949 µM
same,"viability, T/C","second compound 0.0316 µM, first compound 0.00949 µM",50.8%
same,"viability, T/C","second compound 0.0316 µM, first compound 0.03 µM",45.5%
same,"viability, T/C","second compound 0.0316 µM, first compound 0.0949 µM",57.5%
same,"viability, T/C","second compound 0.0316 µM, first compound 0.3 µM",47.5%
same,"viability, T/C","second compound 0.0316 µM, first compound 0.949 µM",53.1%
same,"viability, T/C","second compound 0.0316 µM, first compound 3 µM",57.5%
same,"viability, T/C","second compound 0.1 µM, first compound 0.00949 µM",51.4%
same,"viability, T/C","second compound 0.1 µM, first compound 0.03 µM",56.5%
same,"viability, T/C","second compound 0.1 µM, first compound 0.0949 µM",42.7%
same,"viability, T/C","second compound 0.1 µM, first compound 0.3 µM",44.4%
same,"viability, T/C","second compound 0.1 µM, first compound 0.949 µM",59%
same,"viability, T/C","second compound 0.1 µM, first compound 3 µM",47.3%
same,"viability, T/C","second compound 0.316 µM, first compound 0.00949 µM",56.7%
same,"viability, T/C","second compound 0.316 µM, first compound 0.03 µM",50.6%
same,"viability, T/C","second compound 0.316 µM, first compound 0.0949 µM",46.8%
same,"viability, T/C","second compound 0.316 µM, first compound 0.3 µM",49.1%
same,"viability, T/C","second compound 0.316 µM, first compound 0.949 µM",59.4%
same,"viability, T/C","second compound 0.316 µM, first compound 3 µM",50.3%
same,"viability, T/C","second compound 1 µM, first compound 0.00949 µM",52%
same,"viability, T/C","second compound 1 µM, first compound 0.03 µM",54%
same,"viability, T/C","second compound 1 µM, first compound 0.0949 µM",48.8%
same,"viability, T/C","second compound 1 µM, first compound 0.3 µM",49.5%
same,"viability, T/C","second compound 1 µM, first compound 0.949 µM",52.2%
same,"viability, T/C","second compound 1 µM, first compound 3 µM",53.4%
same,"viability, T/C","second compound 3.16 µM, first compound 0.00949 µM",49.8%
same,"viability, T/C","second compound 3.16 µM, first compound 0.03 µM",48.4%
same,"viability, T/C","second compound 3.16 µM, first compound 0.0949 µM",46.7%
same,"viability, T/C","second compound 3.16 µM, first compound 0.3 µM",56.9%
same,"viability, T/C","second compound 3.16 µM, first compound 0.949 µM",48.3%
same,"viability, T/C","second compound 3.16 µM, first compound 3 µM",46%
same,"viability, T/C","second compound 10 µM, first compound 0.00949 µM",50.5%
same,"viability, T/C","second compound 10 µM, first compound 0.03 µM",45.4%
same,"viability, T/C","second compound 10 µM, first compound 0.0949 µM",46.9%
same,"viability, T/C","second compound 10 µM, first compound 0.3 µM",48.2%
same,"viability, T/C","second compound 10 µM, first compound 0.949 µM",44%
same,"viability, T/C","second compound 10 µM, first compound 3 µM",52.7%
O=c1[nH]cc(F)c(=O)[nH]1 + Cc1cccc(N(C)C(=O)C2C(O)CCN2c2nc(C)cc(C(F)(F)F)c2C#N)c1,IC50,second compound 0.0316 µM,> 10 µM
same,IC50,second compound 0.1 µM,> 10 µM
same,IC50,second compound 0.316 µM,> 10 µM
same,IC50,second compound 1 µM,> 10 µM
same,IC50,second compound 3.16 µM,> 10 µM
same,IC50,second compound 10 µM,> 10 µM
same,"viability, T/C","second compound 0.0316 µM, first compound 0.0316 µM",96%
same,"viability, T/C","second compound 0.0316 µM, first compound 0.1 µM",85.2%
same,"viability, T/C","second compound 0.0316 µM, first compound 0.316 µM",81.1%
same,"viability, T/C","second compound 0.0316 µM, first compound 1 µM",94%
same,"viability, T/C","second compound 0.0316 µM, first compound 3.16 µM",63.6%
same,"viability, T/C","second compound 0.0316 µM, first compound 10 µM",61%
same,"viability, T/C","second compound 0.1 µM, first compound 0.0316 µM",102%
same,"viability, T/C","second compound 0.1 µM, first compound 0.1 µM",84.3%
same,"viability, T/C","second compound 0.1 µM, first compound 0.316 µM",75.9%
same,"viability, T/C","second compound 0.1 µM, first compound 1 µM",54.4%
same,"viability, T/C","second compound 0.1 µM, first compound 3.16 µM",63.7%
same,"viability, T/C","second compound 0.1 µM, first compound 10 µM",65.1%
same,"viability, T/C","second compound 0.316 µM, first compound 0.0316 µM",109%
same,"viability, T/C","second compound 0.316 µM, first compound 0.1 µM",99.3%
same,"viability, T/C","second compound 0.316 µM, first compound 0.316 µM",73.6%
same,"viability, T/C","second compound 0.316 µM, first compound 1 µM",71.3%
same,"viability, T/C","second compound 0.316 µM, first compound 3.16 µM",79.1%
same,"viability, T/C","second compound 0.316 µM, first compound 10 µM",77.7%
same,"viability, T/C","second compound 1 µM, first compound 0.0316 µM",93.4%
same,"viability, T/C","second compound 1 µM, first compound 0.1 µM",93.2%
same,"viability, T/C","second compound 1 µM, first compound 0.316 µM",74.3%
same,"viability, T/C","second compound 1 µM, first compound 1 µM",72%
same,"viability, T/C","second compound 1 µM, first compound 3.16 µM",71.8%
same,"viability, T/C","second compound 1 µM, first compound 10 µM",73.1%
same,"viability, T/C","second compound 3.16 µM, first compound 0.0316 µM",80.8%
same,"viability, T/C","second compound 3.16 µM, first compound 0.1 µM",87.6%
same,"viability, T/C","second compound 3.16 µM, first compound 0.316 µM",80.3%
same,"viability, T/C","second compound 3.16 µM, first compound 1 µM",88.9%
same,"viability, T/C","second compound 3.16 µM, first compound 3.16 µM",83%
same,"viability, T/C","second compound 3.16 µM, first compound 10 µM",65.9%
same,"viability, T/C","second compound 10 µM, first compound 0.0316 µM",71%
same,"viability, T/C","second compound 10 µM, first compound 0.1 µM",79.9%
same,"viability, T/C","second compound 10 µM, first compound 0.316 µM",83.3%
same,"viability, T/C","second compound 10 µM, first compound 1 µM",64.1%
same,"viability, T/C","second compound 10 µM, first compound 3.16 µM",70.3%
same,"viability, T/C","second compound 10 µM, first compound 10 µM",65%
